Columns and labels:
[1] = molecular target: human recombinant H1 receptor (Homo sapiens (Human), UniProt P35367); assay: H1 competition binding assay ([3H]-Pyrilamine, SPA)
Protocol: [^3H]-Pyrilamine binding experiments are carried out in SPA (scintillation proximity assay) 96-well format. Membranes used in this assay are prepared from HEK-293 cells stably expressing recombinant H1 receptor (human). The incubation is initiated by the addition of a mixture of WGA PVT SPA beads (1 mg/well, Perkin Elmer (MA, USA) RPNQ0001) and 3 μg membranes to assay buffer (67 mM Tris; pH 7.6) containing 3.5 nM [^3H]-Pyrilamine and varying concentrations of the test compound (10 point concentration response curves). Non-specific binding is determined in the presence of 10 μM Triprolidine. Samples are incubated for 4 hr. at room temperature (22° C.) and then read in a Microbeta Trilux.
Curves are evaluated using a 4-parameter logistic nonlinear equation to obtain the concentration of competitor causing 50% inhibition of radioligand binding (IC50). Equilibrium dissociation constants (Ki) are calculated according to the equation Ki=IC50/(1+L/Kd), where L equals the concentration of radioligand used in the experiment and Kd equals the equilibrium dissociation constant of the radioligand for the receptor, determined from standard saturation analysis or homologous competition experiments. Reported values for Ki, where n values are indicated, are shown as geometric mean±the standard error of the mean (SEM), with the number of replicate determinations indicated by n. […]

[2] = molecular target: recombinant 5-HT2A receptor (human) (Homo sapiens (Human), UniProt P28223); assay: 5-HT2A competition binding assay ([3H]-Ketanserin, SPA)
Protocol: [^3H]-Ketanserin binding experiments are carried out in SPA 96-well format. Membranes used in this assay are prepared from AV-12 cells stably expressing recombinant 5-HT2A receptor (human). The incubation is initiated by the addition of a mixture of WGA YSi SPA beads (1 mg/well, Perkin Elmer (MA, USA), RPNQ0011) and 2 μg membranes to assay buffer (67 mM Tris, 0.5 mM EDTA; pH 7.6) containing 3.1 nM [^3H]-Ketanserin and varying concentrations of the test compound (10 point concentration response curves). Non-specific binding is determined in the presence of 20 μM 1-(1-Naphthyl) piperazine. Samples are incubated for 4 hr. at room temperature (22° C.) and then read in a Microbeta Trilux.

[3] = molecular target: recombinant 5-HT2C receptor (human) (Homo sapiens (Human), UniProt P28335); assay: 5-HT2C competition binding assay ([125I]-DOI, SPA)
Protocol: [^125I]-(±)DOI binding experiments are carried out in SPA 96-well format. Membranes used in this assay are prepared from AV-12 cells stably expressing recombinant 5-HT2C receptor (human). The incubation is initiated by the addition of a mixture of WGA PVT SPA beads (0.5 mg/well, Perkin Elmer (MA, USA), RPNQ0001) and 2.5 μg membranes to assay buffer (50 mM Tris-HCl, 10 mM MgCl2, 0.5 mM EDTA, 10 μM pargyline, 0.1% ascorbic acid, pH7.4) containing 0.2 nM [[^125I]-(±)DOI and varying concentrations of the test compound (10 point concentration response curves). Non-specific binding is determined in the presence of 20 μM 1-(1-Naphthyl) piperazine. Samples are incubated for 4 hr. at room temperature (22° C.) and then read in a Microbeta Trilux.
Curves are evaluated using a 4-parameter logistic nonlinear equation to obtain the concentration of competitor causing 50% inhibition of radioligand binding (IC50). Equilibrium dissociation constants (Ki) are calculated according to the equation Ki=IC50/(1+L/Kd), where L equals the concentration of radioligand used in the experiment and Kd equals the equilibrium dissociation constant of the radioligand for the receptor, determined from standard saturation analysis or homologous competition experiments. […]

Dopamine D2 = Dopamine D2 (Homo sapiens (Human), UniProt P14416); assay: Dopamine D2 binding
Excerpt: (§1) Further, the compounds of the invention may be tested in binding assays and functional activity assays by well known methods for other physiologically important receptors such as, but not limited to, the hERG channel, other serotonin receptors (specifically 5-HT1B, 5-HT1D, receptors, lack of agonist activity at 5-HT2B receptors, 5-HT2C, 5-HT5, 5-HT6, and 5-HT7 receptors), dopaminergic receptors (specifically D1, D2, and D3), GABAA receptors, adrenergic receptors and monoamine transporters.

Dopamine D3 = Dopamine D3 (Homo sapiens (Human), UniProt P35462); assay: Dopamine D3 binding
Excerpt: as §1

[4] = Plasma clearance in rat (intravenous); type: in vivo; settings: male, Sprague Dawley, rat, plasma, iv, 1 mg/kg, read-out: Clearance
Protocol: Male Sprague Dawley rats (body weight range 250-320 g) with indwelling femoral arterial cannulae are obtained from Charles River, Wilmington, Mass. 01887, USA. Test compound is administered intravenously in solution (1 mL/kg) in 20% Captisol® in 22.5 mM phosphate buffer, pH 2, at a final drug concentration of 1.0 mg/mL (free base equivalents). Blood samples are obtained using the indwelling cannula over 24 hr. Samples of plasma are obtained by centrifugation and stored frozen (−20° C.), or on dry ice, prior to analysis.
Frozen plasma samples are thawed to room temperature for bioanalysis of concentrations of test compound. A related internal standard compound in acetonitrile/methanol (1:1, v/v) is added to all samples of plasma (1:1, v/v). The samples are centrifuged to remove precipitated protein prior to analysis. The supernatants are analysed by injection and rapid gradient elution on a Javelin Betasil C18 column (20×2.1 mm cartridge, Mobile phase A: Water/1 M NH4HCO3, 2000:10 v/v, Mobile Phase B: MeOH/1 M NH4HCO3, 2000:10 v/v). The eluted analytes are detected by LC-MS-MS analysis using a Sciex API 4000 triple quadrupole mass spectrometer. Concentrations of compound are determined from standards prepared and analysed under identical conditions. Clearance is calculated using non-compartmental analysis in Watson 7.4, Thermo Fisher Scientific, Inc.

Dopamine D3, sequence (P35462 whole entry): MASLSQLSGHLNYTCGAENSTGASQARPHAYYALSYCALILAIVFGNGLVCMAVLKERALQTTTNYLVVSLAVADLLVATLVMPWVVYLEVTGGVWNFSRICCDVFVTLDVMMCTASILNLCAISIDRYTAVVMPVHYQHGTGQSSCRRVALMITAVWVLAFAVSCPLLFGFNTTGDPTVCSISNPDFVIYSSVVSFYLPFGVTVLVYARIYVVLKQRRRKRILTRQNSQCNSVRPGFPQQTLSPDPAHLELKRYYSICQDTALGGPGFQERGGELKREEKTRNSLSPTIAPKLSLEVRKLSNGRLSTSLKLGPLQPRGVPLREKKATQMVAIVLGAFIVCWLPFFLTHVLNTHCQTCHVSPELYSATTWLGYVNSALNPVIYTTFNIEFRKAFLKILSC
human recombinant H1 receptor, sequence (P35367 whole entry): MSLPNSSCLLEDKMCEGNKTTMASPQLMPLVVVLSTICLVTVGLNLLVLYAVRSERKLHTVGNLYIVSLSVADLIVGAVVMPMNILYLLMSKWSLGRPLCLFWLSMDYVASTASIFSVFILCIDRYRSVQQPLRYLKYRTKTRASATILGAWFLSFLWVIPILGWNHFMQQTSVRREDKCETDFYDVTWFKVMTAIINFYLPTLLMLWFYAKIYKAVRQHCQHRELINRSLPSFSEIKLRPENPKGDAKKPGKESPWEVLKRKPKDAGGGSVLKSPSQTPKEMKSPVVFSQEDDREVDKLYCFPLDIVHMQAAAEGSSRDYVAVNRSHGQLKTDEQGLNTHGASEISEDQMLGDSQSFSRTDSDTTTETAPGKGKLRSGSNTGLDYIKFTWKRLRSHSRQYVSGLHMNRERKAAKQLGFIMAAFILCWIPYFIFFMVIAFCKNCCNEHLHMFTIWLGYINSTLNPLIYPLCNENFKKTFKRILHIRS
Dopamine D2, sequence (P14416 whole entry): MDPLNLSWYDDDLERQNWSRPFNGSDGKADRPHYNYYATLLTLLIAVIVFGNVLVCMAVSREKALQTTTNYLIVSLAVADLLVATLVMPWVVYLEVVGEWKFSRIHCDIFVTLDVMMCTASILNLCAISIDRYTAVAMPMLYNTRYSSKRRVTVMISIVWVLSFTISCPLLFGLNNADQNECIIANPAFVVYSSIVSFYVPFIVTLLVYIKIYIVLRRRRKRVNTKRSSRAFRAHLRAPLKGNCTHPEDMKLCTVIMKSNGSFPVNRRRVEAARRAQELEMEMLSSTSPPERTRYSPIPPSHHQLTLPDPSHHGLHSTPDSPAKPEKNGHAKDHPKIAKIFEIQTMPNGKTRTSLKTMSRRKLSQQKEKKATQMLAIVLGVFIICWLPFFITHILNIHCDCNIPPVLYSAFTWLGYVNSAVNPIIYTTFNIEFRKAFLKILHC
recombinant 5-HT2C receptor (human), sequence (P28335 whole entry, looked up): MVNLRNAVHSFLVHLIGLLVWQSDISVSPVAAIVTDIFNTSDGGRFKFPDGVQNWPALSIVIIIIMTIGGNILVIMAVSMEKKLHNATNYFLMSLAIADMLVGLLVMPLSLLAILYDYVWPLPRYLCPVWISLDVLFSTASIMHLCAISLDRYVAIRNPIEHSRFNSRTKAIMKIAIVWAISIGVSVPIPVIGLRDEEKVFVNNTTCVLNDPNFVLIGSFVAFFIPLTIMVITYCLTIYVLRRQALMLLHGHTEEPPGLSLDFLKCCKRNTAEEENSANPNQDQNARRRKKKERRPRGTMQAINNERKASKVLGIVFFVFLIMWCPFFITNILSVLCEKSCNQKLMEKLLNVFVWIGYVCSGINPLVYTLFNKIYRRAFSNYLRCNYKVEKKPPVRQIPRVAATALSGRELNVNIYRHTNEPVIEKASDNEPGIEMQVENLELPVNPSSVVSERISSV

With `Cc1ccc2c(c1)Oc1sc(Cl)cc1C(N1CCN(CC(C)(C)C(=O)O)CC1)=N2` [Example 1, 3-[4-(2-Chloro-8-methyl-thieno[2,3-b][1,5]benzoxazepin-4-yl)piperazin-1-yl]-2,2-dimethyl-propanoic acid] the Ki [1] was 20.6 nM, the Ki [2] was 3.37 nM and the Ki [3] was 137 nM. For the same compound, the Ki (Dopamine D2) was 2780 nM, the Ki (Dopamine D3) was greater than 5510 nM and the clearance [4] was 14.1 mL/min/kg.
